In patent US20230126569A1, “COMPOSITION FOR […] OF SARS-CoV-2 TO ACE2 PROTEIN” (priority 2020, published 2023):
Values joined by “and” are separate entries in the source; they are usually repeats but may differ in a detail not shown here. Equal values may be shown once.

What was measured:
[1] = biological target: T1, binding between the spike protein of SARS-CoV-2 and the ACE2 protein (Severe acute respiratory syndrome coronavirus 2, UniProt P0DTC2)
[2] = biological target: T1, binding between the spike protein of SARS-CoV-2 and the ACE2 protein; remark: listed apart in the source

SMILES: [O][Cl+][O-] [Chlorine Dioxide, chlorine dioxide]
- binding between the spike protein and the ACE2 protein [1]: significantly reduced
- Luminescence Intensity (counts/sec × 1000, average ± standard deviation, n = 3) [2]: 1322 ± 45 counts/sec × 1000 and 1072 ± 47 counts/sec × 1000
